Measured values from the NIST ThermoML archive (doi:10.1016/j.fluid.2007.09.001).
Numbers after ± are expanded uncertainties.

Assays:
[1] = Liquid; Ebulliometric method (Recirculating still)
[2] = refractive index (Na D-line) (dimensionless); conditions: 293.15 K; 101.33 kPa; Liquid; Standard Abbe refractometry

Row | Compound | Normal boiling temperature [1] [°C] | refractive index [2]
1 | CC(O)C(C)O (stereo not drawn) [2,3-butanediol] | 181.06 ± 0.5 | 1.4375 ± 0.0021
2 | CCOC(C)=O [ethyl acetate] | 77.09 ± 0.5 | 1.3701 ± 0.0021
3 | CCCCO [butan-1-ol] | 116.97 ± 0.5 | 1.3993 ± 0.0021
4 | CCCCOC(C)=O [butyl ethanoate] | 125.96 ± 0.5 | 1.3941 ± 0.0021
